Experimental data reported in patent US20080242870A1 (priority 2006, published 2008).
Where “and” joins values, the source holds several entries; their conditions need not be identical. Equal entries are not always repeated.

How the values were obtained:
[1] = Emission spectra of anthracene diimides at room temperature (Example 1); assay type: physicochemical; conditions: for Em. λmax: (p) peak, (s) shoulder
Description: (§1) Unless otherwise stated, all experiments used optically dilute solutions (Optical Density (OD)<0.2) at room temperature. […] Emission spectra were obtained with an Aminco-Bowman luminescence spectrometer (Series 2). The excitation was accomplished with a 150 W Xe lamp optically coupled to a monochrometer (+2 nm). The emission was collected at […] and passed through a second monochrometer (±2 nm). Luminescence was measured with a photomultiplier tube (PMT).

[2] = Luminescence lifetime by TCSPC (Example 1); assay type: physicochemical; conditions: TCSPC 370 nm pulsed LED
Description: (§2) Luminescence lifetimes were measured with an IBH time-correlated single photon counting (TCSPC) system equipped with an IBH Model TBX-04 Photon Detection Module. The excitation source for the TCSPC measurements was a pulsed LED (IBH NanoLED, 455 nm, 1.3 ns pulse duration or 403 nm, <200 ps pulse duration) with a repetition rate of 1 MHz. All data was analyzed by iterative reconvolution of the decay profile (10,000 counts at the peak channel) with the instrument response function using software provided by the instrument manufacturer.

[3] = Radiative quantum yield against standards (Example 1); assay type: physicochemical
Description: as §1

[4] = Absorption spectra of anthracene diimides in solvents of increasing polarity (Example 1); assay type: physicochemical
[5] = depending on the solvent
Description: as §2

[6] = in toluene
[7] = in toluene; remark: listed apart in the source

| Molecule | Em. λmax ([1]; ACN (38.8)) | Em. λmax ([1]; Acetone (20.1)) | Em. λmax ([1]; C2H4Cl2 (10.7)) | Em. λmax ([1]; CHCl3 (4.8)) | Em. λmax ([1]; Ethyl Acetate (6.02)) | Em. λmax ([1]; THF (7.6)) | Em. λmax ([1]; Toluene (2.4)) | 1τ ([2]; Toluene (2.4)) [ns] | Φr ([3]; ACN (38.8)) | Φr ([3]; Acetone (20.1)) | Φr ([3]; C2H4Cl2 (10.7)) | Φr ([3]; CHCl3 (4.8)) | Φr ([3]; Ethyl Acetate (6.02)) | Φr ([3]; THF (7.6)) | Φr ([3]; Toluene (2.4)) | Abs. λmax ([4]; ACN (38.8)) [nm] | Abs. λmax ([4]; Acetone (20.1)) [nm] | Abs. λmax ([4]; C2H4Cl2 (10.7)) [nm] | Abs. λmax ([4]; CHCl3 (4.8)) [nm] | Abs. λmax ([4]; Ethyl Acetate (6.02)) [nm] | also measured |
| --- | --- | --- | --- | --- | --- | --- | --- | --- | --- | --- | --- | --- | --- | --- | --- | --- | --- | --- | --- | --- | --- |
| CCCCCCCCn1c(=O)c2c(-c3ccccc3)c3cc4c(-c5ccccc5)c5c(=O)n(CCCCCCCC)c(=O)c5c(-c5ccccc5)c4cc3c(-c3ccccc3)c2c1=O [TPO] | 443(p) nm and 468(p) nm | 443(p) nm and 466(p) nm | 445(p) nm and 470(p) nm | 447(p) nm and 471(p) nm | 442(p) nm and 465(p) nm | 445(p) nm and 467(p) nm | 447(p) nm and 468(p) nm | 2.77 | 0.24 | 0.21 | 0.23 | 0.26 | 0.21 | 0.20 | 0.19 | 428 | 427 | 430 | 432 | 426 | emission band position ([1]; room temperature, all solvents): ~428 nm; 1τ ([2]; ACN (38.8)): 3.84 ns; 1τ ([2]; Acetone (20.1)): 3.34 ns; 1τ ([2]; C2H4Cl2 (10.7)): 3.19 ns; 1τ ([2]; CHCl3 (4.8)): 3.54 ns; 1τ ([2]; Ethyl Acetate (6.02)): 3.12 ns; 1τ ([2]; THF (7.6)): 3.03 ns; Abs. λmax ([4]; THF (7.6)): 427 nm; Abs. λmax ([4]; Toluene (2.4)): 428 nm |
| CCCCCCOc1ccc(-n2c(=O)c3c(-c4ccccc4)c4cc5c(-c6ccccc6)c6c(=O)n(-c7ccc(OCCCCCC)cc7)c(=O)c6c(-c6ccccc6)c5cc4c(-c4ccccc4)c3c2=O)cc1 [TP] | 456(p) nm and 474(s) nm and 585(p) nm | 454(p) nm and 576(p) nm | 450(p) nm and 478(p) nm and 497(p) nm and 549(p) nm | 450(p) nm and 482(p) nm and 564(p) nm | 448(s) nm and 499(s) nm and 549(p) nm | 459(s) nm and 499(s) nm and 552(p) nm | 482(p) nm and 520(s) nm | 1.03 | 0.0080 | 0.011 | 0.029 | 0.08 | 0.023 | 0.027 | 0.21 | 431 | 429 | 435 | 435 | 428 | Em. λmax ([1]; Toluene (2.4), listed as TP (41)): ~431 nm; Abs. λmax ([4]; THF (7.6)): 429 nm; Abs. λmax ([4]; Toluene (2.4)): 431 nm |
| N,N′-Bis(m-(boronic acid)phenyl)-1,5-bis(phenyl)anthracene-2,3,6,7-tetracarboxyl diimide |  |  |  |  |  |  |  |  |  |  |  |  |  |  |  |  |  |  |  |  | lifetime (single exponential) [5]: 5-5.5 ns |
| N,N′-Bis(methyl 18-crown-6)-1,5-bis(phenyl)anthracene-2,3,6,7-tetracarboxyl diimide |  |  |  |  |  |  |  |  |  |  |  |  |  |  |  |  |  |  |  |  | extinction coefficient, ∈ [6]: 12,500 M^−1 cm^−1; quantum yield, Φ [7]: 0.37; lifetime (single exponential) [5]: 5.5-6.5 ns |
